The text below walks through data of article PMC4949444 (Scientific Reports, 2016).

Data set [1] relates to Nrf2 pathway. As to the kind of experiment: Nrf2 transcriptional assay (NQO1-ARE-Luc) in N2a cells. It is filed as cell-based. To be noted: 6 hours. Here is the method: (§1) Nrf2 transcriptional assay: To study Nrf2 transcriptional activity N2a cells were seeded (105/ml) in 24-well plates and transientl y transfected with the plasmid NQO1-ARE-Luc using Roti©-Fect following the manufacturer’s instructions (Carl Roth, Karlsruhe, German y). After 24 hours, cells were incubated wi th the compounds at the concentrations indicated during 6 hours and the luciferase activit y was determined using an Autolumat LB 953 (EG&G Berthold, Bad Wildbad, Germany). Protein content was determined b y the Bradford method to calculate R LU/Pg of protein and the results were expressed as a fold induction over untreated cells.
Supplementary Figure S1. Non-elect rophilic activity for VCE-003.2. (a) Reactive ox ygen species production.
In cu c yt e TM Liv e-Cell Im agin g S ystem. Results are ex pressed as m ean of t otal integrated intensity (ROS positive cells) ± S.D. (b) Effect on Nrf2 transcriptional activity. N2a cells were transientl y trans fected with the NQO1-ARE-Luc plasmid and incubated with the indicated compound concentrations for 6 hours prior to luciferase activit y determination.
Results are expressed as the fold induction ± S.D. relative to untreated control. All the results are representative of at least three independent experiments. Statistics: **p<0.01 VCE-003 treatment vers us Vehicle treated cells.

In data set [2] the target is T1, PPARγ (Homo sapiens, UniProt P37231).
T1 construct: purchased Life Technologies
T1 sequence (P37231 232-505 limits assumed): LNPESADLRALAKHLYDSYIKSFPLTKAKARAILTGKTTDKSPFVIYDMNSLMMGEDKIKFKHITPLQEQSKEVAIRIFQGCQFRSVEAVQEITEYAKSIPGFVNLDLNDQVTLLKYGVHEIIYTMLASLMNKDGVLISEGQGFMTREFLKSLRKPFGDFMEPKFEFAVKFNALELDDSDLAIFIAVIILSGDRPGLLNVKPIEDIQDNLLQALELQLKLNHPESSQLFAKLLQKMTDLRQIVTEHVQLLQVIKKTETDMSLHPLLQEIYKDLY
Briefly: biochemical. Format: binding.
Procedure: The indicated concentrations were tested and results were plotted to obtain the polynomial trend on a logarithmic range. […] HEK293 cells were co-transfected with GAL4-PPARγ and GAL4-luc and incubated with the indicated compound concentrations for 6 hours prior to luciferase activity determination. Results are expressed as the fold induction ± S.D. relative to untreated control. […] All experiments are shown as mean ± S.D. from at least three independent experiments.
To determine PPARγ binding activity the PolarScreen^TM PPAR Competitor Assay kit (Life Technologies, CA, USA) was used following the manufacturer’s instructions. […] To study PPARγ transcriptional activity HEK293 cells were seeded in 24-well plates and transiently co-transfected with the expression vector GAL4-PPARγ and the luciferase reporter vector GAL4-luc using Roti-Fect (Carl Roth, Karlsruhe, Germany) following the manufacturer’s instructions. To correct for transfection efficacy, 100 ng Renilla luciferase (pRL-CMV) was also cotransfected. After stimulation, the luciferase activities were quantified using Dual-Luciferase Assay (Promega, Madison, WI, USA).

Data set [3] relates to mutant huntingtin (mut-Htt) aggregates in striatal STHdh cells. As to the kind of experiment: Mutant huntingtin aggregation in transfected STHdh cells. To be noted: STHdh cells transfected with exon 1 mut-htt, 94 polyglutamine repeats. Format: cell-based, mouse. As for the experimental part:
(§2) Figure 4 In vitro neuroprotective action of VCE-003.2. (a) HiB5 cells were treated with quinolinic acid (QA; 2,5 mM) in the presence or the absence of VCE-003.2 (50 and 250 nM) and cell viability was determined after 24 h by the MTT assay. (b) QA-induced apoptosis measured by cleaved caspase 3 immunostaining (upper panel) of differentiating HiB5 cells was quantified in the presence or absence of VCE-003.2 (250 nM). Cell counts were referred to total cell nuclei counterstained with DAPI and c-caspase3^+ cell quantification is shown in the lower panel. […]. (d) Aggregation of mut-Htt was assessed by fluorescence microscopy in immortalized striatal STHdh transfected cells with a CFP-tagged expression vector of mutant huntingtin (mut-Htt) and counterstained with fluorescent phalloidin (upper panel). […]. Results are representative of three independent experiments. Values are expressed as means ± S. D. *p < 0.05 and ***p < 0.001 vs. Vehicle; ^#p < 0.05 ^##p < 0.01 vs. QA. […]
(§3) The HiB5 hippocampal progenitor cell line (kindly provided by Prof. Z. Kokaia, Lund Stem Cell Center, Sweden) was grown as described[46] in DMEM supplemented with 2 mM glutamine, 1% penicillin/streptomycin and 10% (v/v) fetal calf serum (FCS; Lonza, Switzerland). […] Cell viability was determined after 24 h using the 3-[4,5-dimethylthiazol-2-yl]-2,5-diphenyltetrazolium bromide (MTT) tesresults int. […]

Data set [4] relates to Human mesenchymal stem cells (MSC). As to the kind of experiment: Adipogenic differentiation of human mesenchymal stem cells. It is filed as cell-based. The source says: Figure 2 Effect of VCE-003.2 on adipogenic differentiation. Human mesenchymal stem cells (MSC) were differentiated in adipogenic medium (AM) in the presence of RZG or […] VCE-003.2 and adipogenic markers were characterized. (a) Quantification of oil red (ORO) positive cells after 21 days of differentiation. (b) Representative images of accumulated fat vesicles stained with oil red (Bar size, 50 μm). (c) Gene expression of PPAR-γ2, LPL, CEBPA, ADIPOQ and FABP4 in MSCs differentiated during 18 days. Data represent the percentage of increase over AM considered as the 100% of adipogenic induction. Experiments were performed from three different human MSC preparations each one obtained from a different bone marrow sample.
Reina Sofia University Hospital review board.

Data set [5] concerns STHdh^Q7/Q7. As to the kind of experiment: Serum deprivation survival of STHdh Q7/Q7 striatal neuroblasts (MTT). Format: cell-based, mouse. The note with it: STHdh Q7/Q7, 72 h. Here is the method: as §2, §3
Data set [6] can be described thus: Cysteamine recovery assay (thiol trapping). Here is the method: cysteamine to form polar and not extractable adducts.
Determination of ROS: N2a cells were seeded at 25x 10^3 cells/ml in 96-well plates and incubated with 0.25 ȝM 5-(and-6 )-chloro meth yl-2ƍ,7ƍ-dichlorodihydrofluorescein diacetate acet yl ester (C M-H 2 DCFDA) for 20 minutes at 37°C. Then, the cells were treated with either VCE-003 or VCE-003.2 for 2 hours. Cells exposed to pro-oxidant tert-Butyl h ydroperoxide (TBHP) were used as positive control. H 2 DCFDA oxidation was detected using an Incuc yteTM Live-Cell Imaging S ystem (Hertfordshire, UK).
as §1

Consider `CCCCCC1=C(NCC)C(=O)C(C/C=C(\C)CCC=C(C)C)=C(O)C1=O` [VCE-003.2], for which the “activation of the Nrf2 pathway” value in data set [1] is “none of these bioactivities were induced”. Further, in data set [2], the IC50 worked out at 1200 nM. In addition, the “cells with mut-Htt aggregates” value in data set [3] is on record as “reduced the number of cells with aggregates”. The “percentage of Oil Red O positive cells” value in data set [4] (1 and 2.5 μM vs 1 μM RZG, adipogenic medium, 21 days) was “never achieved the percentage of Oil Red O positive cells (ORO^+) induced by RZG”. For the same compound, the “lipid droplets (morphological examination)” value in data set [4] (compared to RZG) is “lipid droplets are less numerous and smaller”. Moreover, in data set [4] (compared to cells treated with RZG), the “expression of adipogenic differentiation markers PPARγ, LPL, CEBPA, ADIPOQ, FABP4” value is on record as “sensibly lower”. Moreover, the “neuronal viability after serum deprivation” value in data set [5] is reported as “improved”. Moreover, in data set [6], the “recovery after treatment with cysteamine (thiol-trapping reactivity)” value was “recovered unscathed”.
